The numbers were not newly measured in PubChem BioAssay AID1259410 (Chemical Carcinogenesis Research Information System (CCRIS), 2018), which cites them from elsewhere.

In this data set the test system is rodent tumor promotion studies, tumor incidence. Description: CCRIS tumor promotion studies. From the text: The CCRIS database contains chemical records with carcinogenicity, mutagenicity, tumor promotion, and tumor inhibition test results. It was developed by the National Cancer Institute (NCI). Data are derived from studies cited in primary journals, current awareness tools, NCI reports, and other sources. Test results have been reviewed by experts in carcinogenesis and mutagenesis.
CCRIS provides historical information from the years 1985 - 2011. It is no longer updated.
This is an archive assay for CCRIS tumor promotion studies.

For `CC(=O)Oc1ccc(C(c2ccc(OC(C)=O)cc2)c2ccccn2)cc1`, the outcome (Carcinogen: AZOXYMETHANE, 25843-45-2, Doses [Carcinogen]: 15 MG/KG TWICE ON DAYS 1 AND 5 OF TREATMENT, Doses [Promoter]: 0, 4.3, 43 MG/KG/D 6 D/WK FOR 13 WK (STUDY DURATION: 13 WK), Doses [Promoter]: 0, 4.3, 43 MG/KG/D 6 D/WK FOR 13 WK (STUDY DURATION: 13 WK), Route [Carcinogen]: INTRAPERITONEAL, Route [Promoter]: GAVAGE, Species: RAT, Strain/Sex: WISTAR/MALE) is reported as “colon: adenocarcinoma”.

With `C=C1[C@@H](O)[C@@H]2O[C@]3(CC[C@H](/C=C/[C@@H](C)[C@@H]4CC(C)=C[C@@]5(O[C@H](C[C@@](C)(O)C(=O)O)CCC5O)O4)O3)CC[C@H]2O[C@@H]1[C@@H](O)C[C@H](C)[C@H]1O[C@@]2(CCCCO2)CC[C@H]1C` (some centres not stated), the outcome is reported as “skin: tumor” (Carcinogen: 7,12-DIMETHYLBENZ[A]ANTHRACENE, 57-97-6, Doses [Carcinogen]: 100 UG IN 0.1 ML OF ACETONE ONCE, Doses [Promoter]: 0, 5 UG IN 0.1 ML OF ACETONE 2/WK FOR 30 WK BEGINNING 1 WK POST CARCINOGEN DOSE (STUDY DURATION: 31 WK), Route [Carcinogen]: DERMAL, Route [Promoter]: DERMAL, Species: MOUSE, Strain/Sex: CD-1/FEMALE) and “glandular stomach: neoplasms” (Carcinogen: N-METHYL-N'-NITRO-N-NITROSOGUANIDINE, 70-25-7, Doses [Carcinogen]: 100 MG/L OF DEIONIZED WATER AS DRINKING WATER FOR 8 WK, Doses [Promoter]: 0.25 MG/L IN DRINKING WATER BEGINNING 1 WK POST CARCINOGEN TREATMENT AND CONTINUING FOR 46 WK THEN 0.5 MG/L FOR 17 WK (S, Route [Carcinogen]: ORAL, Route [Promoter]: ORAL, Species: RAT, Strain/Sex: SPRAGUE-DAWLEY/MALE).

Take `CC[C@@H](C)[C@H](NC(=O)CN)C(=O)N[C@H](C(=O)N[C@@H](CCC(=O)O)C(=O)N[C@@H](CCC(N)=O)C(=O)N[C@H]1CSSC[C@H]2NC(=O)[C@H]([C@H](C)CC)NC(=O)[C@H](CO)NC(=O)[C@H]([C@H](C)O)NC(=O)[C@H](CSSC[C@H](NC(=O)[C@H](CC(C)C)NC(=O)[C@H](Cc3c[nH]cn3)NC(=O)[C@H](CCC(N)=O)NC(=O)[C@@H](NC(=O)[C@@H](NC(=O)[C@@H](N)Cc3ccccc3)C(C)C)C(N)=O)C(=O)NCC(=O)N[C@@H](CO)C(=O)N[C@@H](Cc3c[nH]cn3)C(=O)N[C@@H](CC(C)C)C(=O)N[C@@H](C(C)C)C(=O)N[C@@H](CCC(=O)O)C(=O)N[C@@H](C)C(=O)N[C@@H](CC(C)C)C(=O)N[C@@H](Cc3ccc(O)cc3)C(=O)N[C@@H](CC(C)C)C(=O)N[C@@H](C(C)C)C(=O)N[C@H](C(=O)NCC(=O)N[C@@H](CCC(=O)O)C(=O)N[C@@H](CCCNC(=N)N)C(=O)NCC(=O)N[C@@H](Cc3ccccc3)C(=O)N[C@@H](Cc3ccccc3)C(=O)N[C@@H](Cc3ccc(O)cc3)C(=O)N[C@H](C(=O)N3CCC[C@H]3C(=O)N[C@@H](CCCCN)C(=O)N[C@H](C(=O)O)[C@H](C)O)[C@H](C)O)CSSC[C@@H](C(=O)N[C@@H](CC(N)=O)C(=O)O)NC(=O)[C@H](Cc3ccc(O)cc3)NC(=O)[C@H](CC(N)=O)NC(=O)[C@H](CCC(=O)O)NC(=O)[C@H](CC(C)C)NC(=O)[C@H](CCC(N)=O)NC(=O)[C@H](Cc3ccc(O)cc3)NC(=O)[C@H](CC(C)C)NC(=O)[C@H](CO)NC2=O)NC1=O)C(C)C`: the outcome (Carcinogen: 7,12-DIMETHYLBENZ[A]ANTHRACENE, 57-97-6, Doses [Carcinogen]: 20 MG IN 4 ML OLIVE OIL ONCE, Doses [Promoter]: 0, 10 I.U./D BEGINNING 4 WK POST CARCINOGEN DOSE AND CONTINUING FOR DURATION OF STUDY (STUDY DURATION: 6 MO), Route [Carcinogen]: GAVAGE, Route [Promoter]: SUBCUTANEOUS, Species: RAT, Strain/Sex: SWISS/FEMALE) is listed as “mammary gland: tumor”.

Consider `C/C=C(\C(=C/C)c1ccc(O)cc1)c1ccc(O)cc1`, for which the outcome (Carcinogen: IRRADIATION, Doses [Carcinogen]: 260 CGY GAMMA RAYS AT DAY 20 OF PREGNANCY, Doses [Promoter]: 0, 0.376 UG/D RELEASED FROM PELLET IMPLANTED AFTER NURSING DISCONTINUED, PELLET REPLACED EVERY 8 WK (STUDY DURATION: 1 Y, Route [Carcinogen]: DERMAL, Route [Promoter]: IMPLANT, Species: RAT, Strain/Sex: WISTAR/FEMALE) is “mammary gland: tumor”.

Regarding `Cc1ccc(O)c(O)c1`, under “Carcinogen: N-METHYL-N'-NITRO-N-NITROSOGUANIDINE, 70-25-7, Doses [Carcinogen]: 150 MG/KG IN DMSO ONCE, Doses [Promoter]: 0, 1.5% IN DIET FOR 51 WK BEGINNING 1 WK AFTER CARCINOGEN DOSE (STUDY DURATION: 52 WK), Route [Carcinogen]: GAVAGE, Route [Promoter]: ORAL, Species: RAT, Strain/Sex: F344/MALE”, the outcome was “forestomach: squamous cell carcinoma; glandular stomach: adenocarcinoma”.

On to `COc1cc(NS(=O)(=O)c2ccc(N)cc2)nc(OC)n1`, for which the outcome is “thyroid: negative for tumors” (Carcinogen: Kojic acid, 501-30-4, Doses [Carcinogen]: 0.02, 0.2, 2% in diet for 8 wk before administration of promoter, Doses [Carcinogen]: 0.02, 0.2, 2% in diet for 8 wk before administration of promoter, Doses [Promoter]: 0.1% in drinking water from 8 wk to 31 wk of experiment, study duration 44 wk, Route [Carcinogen]: Oral, Route [Promoter]: Oral, Species: Rat, Strain/Sex: F344//Male (20/experimental group (10 killed at 31 wk & 10 killed at 44 wk); 15/controls)); “thyroid: adenoma and carcinoma at both 31 and 44 wk” (Carcinogen: N-bis(2-hydroxypropyl)nitrosamine, 53609-64-6, Doses [Carcinogen]: 700 mg/kg, 4 injections administered over 8 wk before promoter, Doses [Promoter]: 0.1% in drinking water from 8 wk to 31 wk of experiment, study duration 44 wk, Route [Carcinogen]: Subcutaneous, Route [Promoter]: Oral, Species: Rat, Strain/Sex: F344//Male (20/experimental group (10 killed at 31 wk & 10 killed at 44 wk); 15/controls)).

With `Oc1c(Cl)c(Cl)c(O)c(Cl)c1Cl`, the outcome (Carcinogen: 7,12-Dimethylbenzanthracene, 57-97-6, Doses [Carcinogen]: 100 ug in 100 ul acetone once at 7 wks of age, Doses [Promoter]: 100, 500 ug in 100 ul acetone 1 wk after carcinogen, 2 times a wk for 20 or 30 wks, Route [Carcinogen]: Dermal, Route [Promoter]: Dermal, Species: Mouse, Strain/Sex: CD-1/Female) was “skin: tumors (dihydrolipoic acid significantly inhibited tumor incidence and mul”.

Take `O=C([O-])[C@H](O)[C@@H](O)[C@H](O)[C@H](O)CO.O=C([O-])[C@H](O)[C@@H](O)[C@H](O)[C@H](O)CO.[Cu+2]`: under “Carcinogen: N-nitrosodiethylamine (DEN) (55-18-5), N-methylnitrosourea (MNU) (684-93-5), 1,2-dimethylhydrazine (DMH) (540-73-8), N-b, Carcinogen: N-nitrosodiethylamine (DEN) (55-18-5), N-methylnitrosourea (MNU) (684-93-5), 1,2-dimethylhydrazine (DMH) (540-73-8), N-b, Doses [Carcinogen]: DEN (100 mg/kg at commencement), MNU (4 injections of 20 mg/kg in first 2 wks), DMH (4 injections of 40 mg/kg in second, Doses [Carcinogen]: DEN (100 mg/kg at commencement), MNU (4 injections of 20 mg/kg in first 2 wks), DMH (4 injections of 40 mg/kg in second, Doses [Promoter]: 0, 10, 300, 3000, 6000 ppm in diet immediately after completion of initiator treatment for 25 wk, Doses [Promoter]: 0, 10, 300, 3000, 6000 ppm in diet immediately after completion of initiator treatment for 25 wk, Route [Carcinogen]: Intraperitoneal (DEN and MNU), subcutaneous (DMH), oral (BBN and DHPN), Route [Carcinogen]: Intraperitoneal (DEN and MNU), subcutaneous (DMH), oral (BBN and DHPN), Route [Promoter]: Oral, Species: Rat, Strain/Sex: BrlHan:WIST Jcl (GALAS)/Male (9-12/group)”, the outcome was “liver: gst-p-positive lesions (p<0.05 at 300 and 3000 ppm and p<0.01 at 6000 ppm”.

`CC[C@H](C)[C@H](NC(=O)[C@H](CO)NC(=O)[C@H](CC(N)=O)NC(=O)[C@H](CC(C)C)NC(=O)[C@H](Cc1ccc(O)cc1)NC(=O)[C@H](CCCCN)NC(=O)[C@H](CCCCN)NC(=O)[C@@H](NC(=O)[C@H](C)NC(=O)[C@H](CCSC)NC(=O)[C@H](CCC(N)=O)NC(=O)[C@H](CCCCN)NC(=O)[C@H](CCCNC(=N)N)NC(=O)[C@H](CC(C)C)NC(=O)[C@H](CCCNC(=N)N)NC(=O)[C@@H](NC(=O)[C@H](Cc1ccc(O)cc1)NC(=O)[C@H](CC(N)=O)NC(=O)[C@H](CC(=O)O)NC(=O)[C@@H](NC(=O)[C@H](Cc1ccccc1)NC(=O)[C@@H](NC(=O)[C@H](C)NC(=O)[C@H](CC(=O)O)NC(=O)[C@H](CO)NC(=O)[C@@H](N)Cc1c[nH]cn1)C(C)C)[C@@H](C)O)[C@@H](C)O)C(C)C)C(=O)N[C@@H](CC(C)C)C(=O)N[C@@H](CC(N)=O)C(=O)O`: the outcome (Carcinogen: AZOXYMETHANE, 25843-45-2, Doses [Carcinogen]: 7.4 MG/KG BW IN 0.9% SALINE 1/WK FOR 10 WK, Doses [Promoter]: 0, 20 UG/KG BW IN OLIVE OIL 1/2 D FOR DURATION OF STUDY (STUDY DURATION: 45 WK), Route [Carcinogen]: SUBCUTANEOUS, Route [Promoter]: SUBCUTANEOUS, Species: RAT, Strain/Sex: WISTAR/MALE) was “colon: tumor”.

Take `CCCCCCCCCCCCO`: under “Carcinogen: 7,12-DIMETHYLBENZ(A)ANTHRACENE, Doses [Carcinogen]: TOP, Route [Carcinogen]: DERMAL, Route [Promoter]: DERMAL, Species: MOUSE, Strain/Sex: FEMALE”, the outcome is on record as “integumentary system (skin)”.
